The record followed here is patent publication US6794402B2, “Bicyclic cyclohexylamines and their use as NMDA receptor antagonists” (Warner-Lambert Company, priority 2000, dated 2004).

As usually defined, the melting point is the temperature of the solid-liquid transition.

One data set concerns the target NR1A/NR2B NMDA receptor (Rattus norvegicus, UniProt P35439+Q00960). Put plainly: Electrophysiological assay at NMDA receptor subunits expressed in Xenopus oocytes. It counts as cell-based. The settings on record: cloned rat NR1A/NR2B in Xenopus oocytes, two-electrode voltage clamp, glutamate 100 μM + glycine 1-100 μM; read-out: NR1A/NR2B Oocyte IC50. The text has this: Preparation of RNA. cDNA clones encoding the NR1A, NR2A, NR2B, and NR2C rat NMDA receptor subtypes were used (see, Moriyoshi, supra., 1991; Kutsuwada et al., supra., 1992; Monyer et al., supra, 1992; Ikeda et al., FEBS Lett., 1992;313:34-38; Ishii et al., J. Biol. Chem., 1993;268:2836-2843 for details of these clones or their mouse homologs). The clones were transformed into appropriate host bacteria and plasmid preparations were made with conventional DNA purification techniques. A sample of each clone linearized by restriction enzyme digestion […] was synthesized with T3 RNA polymerase. The cRNA was diluted to 400 ng/μL and stored in 1-μL aliquots at −80° C. until injection.
The Xenopus oocyte expression system. Mature female Xenopus laevis were anaesthetized (20-40 minutes) using 0.15% 3-aminobenzoic acid ethyl ester (MS-222), and 2 to 4 ovarian lobes were surgically removed. Oocytes at developmental stages IV-VI (Dumont J. N., J. Morphol., 1972;136:153-180) were dissected from the ovary still surrounded by enveloping ovarian tissues. Follicle-enclosed oocytes were microinjected with 1:1 mixtures of NR1A:NR2A, 2B or 2C; injecting 1 to 10 ng of RNA encoding each receptor subunit. NR1A encoding RNA was injected alone at ˜20 ng. Oocytes were stored in Barth's medium containing (in mM): NaCl, 88; KCl, 1; CaCl2, 0.41; Ca (NO3)2, 0.33; MgSO4, 0.82; NaHCO3, 2.4; HEPES 5; pH 7.4, with 0.11 mg/mL gentamicin sulphate. While oocytes were still surrounded by enveloping ovarian tissues, the Barth's medium was supplemented with 0.1% bovine serum. Oocytes were defolliculated 1 to 2 days following injections by treatment with collagenase (0.5 mg/mL Sigma Type I for 0.5-1 hr)-(Miledi and Woodward, J. Phsyiol., (Lond) 1989;416:601-621) and subsequently stored in serum-free medium.
Electrical recordings were made using a conventional two-electrode voltage clamp (Dagan TEV-200) over periods ranging between 3 to 21 days following injection (Woodward et al., Mol. Pharmacol., 1992;41:89-103). Oocytes were placed in a 0.1-mL recording chamber continuously perfused (5 mL-15 mL min^−1) with frog Ringer's solution containing (in mM): NaCl, 115; KCL, 2; BaCl2, 1.8; HEPES, 5; and pH 7.4. Drugs were applied by bath perfusion. Using oocytes expressing different subunit combinations of NMDA receptor, NMDA currents were activated by co-application of glutamate (100 μM) and glycine (1-100 μM). Inhibitory potency of the novel antagonists was assessed on responses elicited by fixed concentrations of glutamate and glycine, by measuring reductions in current induced by progressively increasing concentrations of antagonist.
Concentration-inhibition curves were fit with Equation 1.
I/Icontrol=1/(1+([antagonist]/10−^pIC50)^n) Eq. 1
In which Icontrol is the current evoked by agonists alone, pIC50=−log IC50, IC50 is the concentration of antagonist that produced half maximal inhibition, and n is the slope factor (De Lean et al., Am. J. Physiol., 1978;235:E97-102). For incomplete curves, analysis by fitting was unreliable and IC50 values were calculated by simple regression over linear portions of the curves (Origin: Microcal Software).

Data set [1] addresses T1, [3H]ifenprodil binding site, rat forebrain membranes (Rattus norvegicus, UniProt P35439+Q00960).
T1 construct: membrane fraction was prepared from frozen adult rat forebrains; tissue Zivic-Miller Laboratories, Inc; host or cells: adult rat forebrain, washed buffy coat membrane fraction
Put plainly: [3H]Ifenprodil binding assay. The settings on record: 4 nM [3H]-ifenprodil, 2 hours at room temperature. A digest of the protocol:
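Washed rat forebrain buffy coat membranes (100-200 μg protein) were incubated with 4 nM [3H]ifenprodil in 20 mM HEPES-KOH pH 7.4 for 2 hours at room temperature, in triplicate, then filtered on PEI-soaked GF/B filters. Nonspecific binding was set with 1 mM ifenprodil. IC50 came from a one- or two-site competition fit.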

Data set [2] has as its system 6-Hydroxydopamine-lesioned rats. Put plainly: 6-OHDA lesioned rat assay. It counts as in vivo. The settings on record: for 6-OHDA MED: minimum effective dose to potentiate contraversive rotation induced by L-DOPA methyl ester 10 mg/kg SC, 6-hour period; for 6-OHDA active/inactive at the given dose: statistically significant increase in contraversive rotations vs L-DOPA only. As to the method: 6-Hydroxydopamine-lesioned rats were used (see Ungerstedt U., Arbuthnott G. W., Quantitative recording of rotational behavior in rats after 6-hydroxy-dopamine lesions of the nigrostraiatal dopamine system. Brain Res., 1971;24(3):485-93). Adult male Sprague-Dawley rats were anesthetized with chloral hydrate and unilateral lesions of the nigrostriatal dopamine system were accomplished by infusion of 8 μg of 6-hydroxydopamine HBr (6-OHDA) into the right medial forebrain bundle. Rats were pretreated 30 minutes before surgery with desipramine HCl 25 mg/kg intraperitoneally (IP) to protect noradrenegic neurons, and pargyline 25 mg/kg IP to potentiate the effects of 6-OHDA. A minimum of 3 weeks after surgery, the rotational behavior induced by apomorphine HCL 50 μg/kg subcutaneously (SC) was assessed.
Rotational behavior was measured using an automatic rotometer system (Rotorat Rotational Activity System, MED Associates, Georgia, Vt.). Anti-parkinsonian activity was assessed as the ability of the compound to potentiate the contraversive rotation induced by L-DOPA methyl ester, 10 mg/kg SC, over a 6-hour period. Experiments were conducted using a crossover paradigm where each rat received either a vehicle plus L-DOPA, or the test compound plus L-DOPA, in randomized order. Rats were tested at 7-day intervals. In experiments in which the compound was tested orally, rats were food deprived for 16 hours. Statistical analysis between treatment groups were performed using a paired t-test. The results were reported in Table 1 as the minimum effective dose (MED) of compound (mg/kg) required to produce a statistically-significant increase in total contraversive rotations compared to rats receiving L-DOPA only.

Where only a bound is given, the exact number is not on record here.

T1 sequence (Q00960 27-1482, other chains not shown): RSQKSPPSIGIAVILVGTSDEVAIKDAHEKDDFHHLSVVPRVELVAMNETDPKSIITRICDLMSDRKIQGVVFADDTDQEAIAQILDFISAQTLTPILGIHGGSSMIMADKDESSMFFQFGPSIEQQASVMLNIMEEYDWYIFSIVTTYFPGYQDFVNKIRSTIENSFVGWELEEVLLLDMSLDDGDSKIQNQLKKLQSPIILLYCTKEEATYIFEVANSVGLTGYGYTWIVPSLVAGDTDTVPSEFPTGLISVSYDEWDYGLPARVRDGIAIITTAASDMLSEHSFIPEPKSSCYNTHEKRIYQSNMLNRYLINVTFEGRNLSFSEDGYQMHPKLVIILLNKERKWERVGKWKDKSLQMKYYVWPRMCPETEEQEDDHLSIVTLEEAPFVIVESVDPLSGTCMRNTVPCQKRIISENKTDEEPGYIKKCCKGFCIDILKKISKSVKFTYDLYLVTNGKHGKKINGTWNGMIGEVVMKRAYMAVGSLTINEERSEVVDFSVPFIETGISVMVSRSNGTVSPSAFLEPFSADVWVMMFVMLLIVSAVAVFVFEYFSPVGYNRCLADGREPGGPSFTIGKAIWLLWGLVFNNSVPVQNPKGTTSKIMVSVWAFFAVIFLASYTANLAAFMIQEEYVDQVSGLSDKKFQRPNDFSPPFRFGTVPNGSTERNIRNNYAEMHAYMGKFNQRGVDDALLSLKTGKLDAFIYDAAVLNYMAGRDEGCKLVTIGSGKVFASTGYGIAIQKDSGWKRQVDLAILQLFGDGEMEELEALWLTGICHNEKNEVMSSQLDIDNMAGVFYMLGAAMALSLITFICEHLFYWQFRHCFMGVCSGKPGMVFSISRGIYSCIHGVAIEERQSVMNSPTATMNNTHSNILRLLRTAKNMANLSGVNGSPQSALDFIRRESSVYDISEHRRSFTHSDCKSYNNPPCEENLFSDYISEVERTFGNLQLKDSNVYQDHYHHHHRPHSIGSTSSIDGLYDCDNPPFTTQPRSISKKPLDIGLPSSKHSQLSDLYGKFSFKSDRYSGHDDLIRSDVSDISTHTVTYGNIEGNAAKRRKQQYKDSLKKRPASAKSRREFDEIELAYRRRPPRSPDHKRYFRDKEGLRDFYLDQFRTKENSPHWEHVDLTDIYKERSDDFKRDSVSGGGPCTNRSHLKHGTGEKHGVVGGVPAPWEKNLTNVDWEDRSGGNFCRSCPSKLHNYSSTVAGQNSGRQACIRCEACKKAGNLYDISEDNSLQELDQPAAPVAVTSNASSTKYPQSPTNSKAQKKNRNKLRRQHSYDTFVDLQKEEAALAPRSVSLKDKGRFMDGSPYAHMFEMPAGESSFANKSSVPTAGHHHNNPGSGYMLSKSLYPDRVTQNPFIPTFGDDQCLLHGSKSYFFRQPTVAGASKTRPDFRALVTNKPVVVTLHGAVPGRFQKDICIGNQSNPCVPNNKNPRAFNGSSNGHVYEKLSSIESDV
NR1A/NR2B NMDA receptor, sequence (Q00960 27-1482, other chains not shown): as above

For `C[C@H](N[C@H]1CC[C@H](c2ccc3[nH]c(=O)oc3c2)CC1)[C@H](O)c1ccccc1` (stereo in doubt) [Example 12, 6-{trans-4-[(1S,2R)-2-Hydroxy-1-methyl-2-phenylethylamino]cyclohexyl}-3H-benzoxazol-2-one], the results for the IC50 (at NR1A/NR2B NMDA receptor; in data set [1]) were 70000 nM and 22500 nM, respectively.
On to `O=c1[nH]c2ccc([C@H]3CC[C@H](NCCCc4ccccc4)CC3)cc2o1` [Example 1, 6-[trans-4-(3-Phenylpropylamino)cyclohexyl]-3H-benzoxazol-2-one], for which the melting point fell in the range of 166 to 170 °C. Besides, the IC50 at NR1A/NR2B NMDA receptor came out at 30 nM. In data set [2], the “6-OHDA MED” value was 30 mg/kg and the “6-OHDA active/inactive at the given dose” value is reported as “active”. Further, the IC50 in data set [1] was 4 nM.
As to `O=c1[nH]c2ccc([C@H]3CC[C@H](NCCOc4ccccc4)CC3)cc2o1` [Example 3, 6-[trans-4-(2-Phenoxyethylamino)cyclohexyl]-3H-benzoxazol-2-one], the melting point was in the range of 159 to 162 °C. Moreover, the IC50 at NR1A/NR2B NMDA receptor turned out to be 100 nM. Besides, in data set [2], the “6-OHDA MED” value was 10.0 mg/kg and the “6-OHDA active/inactive at the given dose” value was “active”.
Regarding `O=c1[nH]c2ccc([C@H]3CC[C@H](NCCCc4ccc(F)cc4)CC3)cc2o1` [Example 4a, 6-{trans-4-[3-(4-Fluorophenyl)propylamino]cyclohexyl}-3H-benzoxazol-2-one], the IC50 at NR1A/NR2B NMDA receptor was found to be 20 nM. In addition, in data set [2], the “6-OHDA MED” value was greater than 10.0 mg/kg and the “6-OHDA active/inactive at the given dose” value is “inactive”. Besides, the IC50 in data set [1] was determined as 7 nM.
As for `O=c1[nH]c2ccc([C@H]3CC[C@H](NCCSc4ccccc4)CC3)cc2o1` [Example 5a, 6-[trans-4-(2-Phenylsulfanylethylamino)cyclohexyl]-3H-benzoxazol-2-one], the IC50 at NR1A/NR2B NMDA receptor is 20 nM; in data set [1] it was 4 nM.
`O=c1[nH]c2ccc([C@H]3CC[C@H](NCCNc4ccccc4)CC3)cc2o1` [Example 7, 6-[trans-4-(2-Phenylaminoethylamino)cyclohexyl]-3H-benzoxazol-2-one]: the melting point fell in the range of 293 to 295 °C. Further, the IC50 at NR1A/NR2B NMDA receptor came out at 90 nM. Besides, in data set [1], the IC50 turned out to be 37 nM.
For the molecule `O=c1[nH]c2ccc([C@H]3CC[C@H](NCCSc4ccc(F)cc4)CC3)cc2o1` [Example 8, 6-{trans-4-[2-(4-Fluorophenylsulfanyl)ethylamino]cyclohexyl}-3H-benzoxazol-2-one], on NR1A/NR2B NMDA receptor, the IC50 came out at 20 nM.
`C[C@H](CCc1ccccc1)N[C@H]1CC[C@H](c2ccc3[nH]c(=O)oc3c2)CC1` [Example 9, 6-{trans-4-[(R)-1-Methyl-3-phenylpropylamino]cyclohexyl}-3H-benzoxazol-2-one]: the results for the IC50 (at NR1A/NR2B NMDA receptor; in data set [1]) were 60 nM and 15 nM, respectively.
For `C[C@@H](CCc1ccccc1)N[C@H]1CC[C@H](c2ccc3[nH]c(=O)oc3c2)CC1` [Example 10, 6-{trans-4-[(S)-1-Methyl-3-phenylpropylamino]cyclohexyl}-3H-benzoxazol-2-one], the melting point was 174 to 176 °C. In addition, the IC50 on NR1A/NR2B NMDA receptor was 110 nM. In addition, in data set [1], the IC50 stood at 49 nM.
Take `COc1ccc([C@H](O)[C@H](C)N[C@H]2CC[C@H](c3ccc4[nH]c(=O)oc4c3)CC2)cc1` [Example 11a, 6-{trans-4-[(1S,2S)-2-Hydroxy-2-(4-methoxyphenyl)-1-methylethylamino]-cyclohexyl}-3H-benzoxazol-2-one]: the IC50 on NR1A/NR2B NMDA receptor was 55000 nM; in data set [1], greater than 1000 nM.
On to `COc1ccc([C@H](O)[C@H](C)N[C@H]2CC[C@@H](c3ccc4[nH]c(=O)oc4c3)CC2)cc1` [Example 11b, 6-{cis-4-[(1S,2S)-2-Hydroxy-2-(4-methoxyphenyl)-1-methylethylamino]-cyclohexyl}-3H-benzoxazol-2-one], for which the IC50 at NR1A/NR2B NMDA receptor was 10000 nM; in data set [1], greater than 1000 nM.
Taken in the same sequence, the figures for `Cc1ccc(CCCN[C@H]2CC[C@@H](c3ccc4[nH]c(=O)oc4c3)CC2)cc1` [Example 13a, 6-[cis-4-(3-p-Tolylpropylamino)cyclohexyl]-3H-benzoxazol-2-one] were 80 nM and 38 nM.
The like results for `Cc1ccc(CCCN[C@H]2CC[C@H](c3ccc4[nH]c(=O)oc4c3)CC2)cc1` [Example 13b, 6-[trans-4-(3-p-Tolylpropylamino)cyclohexyl]-3H-benzoxazol-2-one] were, in that order, 20 nM and 5 nM.
Turning to `O=c1[nH]c2ccc([C@H]3CC[C@H](NCC[S+]([O-])c4ccccc4)CC3)cc2o1` (stereo partly drawn) [Example 15, 6-[trans-4-(2-Benzenesulfinylethylamino)cyclohexyl]-3H-benzoxazol-2-one], the IC50 at NR1A/NR2B NMDA receptor stood at 460 nM; in data set [1] it was 92 nM.
Take `O=c1[nH]c2ccc([C@H]3CC[C@H](NCCS(=O)(=O)c4ccccc4)CC3)cc2o1` [Example 16, 6-[trans-4-(2-Benzenesulfonylethylamino)cyclohexyl]-3H-benzoxazol-2-one]: the IC50 at NR1A/NR2B NMDA receptor came out at 2500 nM; in data set [1], 1730 nM.
For the molecule `CN(CCCc1ccccc1)[C@H]1CC[C@H](c2ccc3[nH]c(=O)oc3c2)CC1` [Example 17, 6-{trans-4-[Methyl(3-phenylpropyl)amino]cyclohexyl}-3H-benzoxazol-2-one], the melting point was 58 to 62 °C. Further, in data set [2], the “6-OHDA MED” value is recorded as 10 mg/kg and the “6-OHDA active/inactive at the given dose” value is “active”. Also, the IC50 in data set [1] stood at 10 nM.
As for `CN(CCCc1ccc(C(F)(F)F)cc1)[C@H]1CC[C@H](c2ccc3[nH]c(=O)oc3c2)CC1` [Example 23, 6-{trans-4-[Methyl-3-(4-Trifluoromethylphenyl)propylamino]cyclohexyl}-3H-benzoxazol-2-one], in data set [2], the “6-OHDA MED” value turned out to be 10 mg/kg and the “6-OHDA active/inactive at the given dose” value was “active”. The IC50 in data set [1] was determined as 38 nM.
Taken in the same sequence, the figures for `CCN(CCCc1ccc(F)cc1)[C@H]1CC[C@H](c2ccc3[nH]c(=O)oc3c2)CC1` [Example 25, 6-(trans-4-{Ethyl-[3-(4-fluorophenyl)propyl]amino}cyclohexyl)-3H-benzoxazol-2-one] were 10 mg/kg, “active” and 79 nM.
